Measurements published in PubChem BioAssay AID248 (DTP/NCI, 2004).
“And” between values parts separate entries of the source, which are not always exact repeats. Equal values may be shown once. Inconclusive results and toxic doses are left out.

Test system: L1210 leukemia ip in BDF1 mice, survival T/C
Assay: NCI In Vivo Anticancer Drug Screen. Data for tumor model L1210 Leukemia (intraperitoneal) in B6D2F1 (BDF1) mice
Conditions: endpoint: mean survival time, higher = longer survival
Summary of the method: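 Transplanted-tumor mice were given test agent; controls received vehicle only. Survival readings from the two groups were divided (treated over control).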

[1] = dose: 100.0 mg/kg/injection, schedule: Q04DX003 (ip), vehicle: Klucel (hydroxypropylcellulose) (HPC)
[2] = dose: 200.0 mg/kg/injection, schedule: Q04DX003 (ip), vehicle: Klucel (hydroxypropylcellulose) (HPC)
[3] = dose: 400.0 mg/kg/injection, schedule: Q04DX003 (ip), vehicle: Klucel (hydroxypropylcellulose) (HPC)
[4] = dose: 50.0 mg/kg/injection, schedule: Q01DX009 (ip), vehicle: Klucel (hydroxypropylcellulose) (HPC)
[5] = dose: 100.0 mg/kg/injection, schedule: Q01DX009 (ip), vehicle: Klucel (hydroxypropylcellulose) (HPC)
[6] = dose: 25.0 mg/kg/injection, schedule: Q01DX009 (ip), vehicle: Klucel (hydroxypropylcellulose) (HPC)
[7] = dose: 100.0 mg/kg/injection, schedule: Q04DX003 (ip), vehicle: saline with Tween-80
[8] = dose: 200.0 mg/kg/injection, schedule: Q04DX003 (ip), vehicle: saline with Tween-80
[9] = dose: 400.0 mg/kg/injection, schedule: Q04DX003 (ip), vehicle: saline with Tween-80

`CCCCNC(=O)Nc1ccc(C(=O)O)c(O)c1` was tested, and the T/C [1] was 100 % of control, the T/C [2] was 94 % of control and the T/C [3] was 93 % of control.
With `O=C(Nc1cc(Cl)c(Oc2ccc(Cl)cc2)cc1S(=O)(=O)O)Nc1cccc(Cl)c1Cl` the T/C [4] was 109 % of control and the T/C [5] was 104 % of control.
For `CCCCOc1ccc(/C=N/NC(=O)Nc2ccccc2)cc1`, the T/C [6] was 95 % of control, the T/C [4] was 97 % of control and the T/C [5] was 88 % of control and 90 % of control. The T/C (dose: 400.0 mg/kg/injection, schedule: Q01DX009 (ip), vehicle: Klucel (hydroxypropylcellulose) (HPC)) was 87 % of control.
`c1ccc2c(c1)CCc1ccccc1CN(CCNC1=NCCN1)C2` was tested, and the T/C (dose: 6.25 mg/kg/injection, schedule: Q01DX009 (ip), vehicle: Klucel (hydroxypropylcellulose) (HPC)) was 96 % of control, the T/C (dose: 12.5 mg/kg/injection, schedule: Q01DX009 (ip), vehicle: Klucel (hydroxypropylcellulose) (HPC)) was 91 % of control and the T/C [6] was 91 % of control.
`CCCCNC(=S)Nc1ccccc1` was tested, and the T/C (dose: 75.0 mg/kg/injection, schedule: Q01DX001 (ip), vehicle: other) was 117 % of control, the T/C (dose: 150.0 mg/kg/injection, schedule: Q01DX001 (ip), vehicle: other) was 117 % of control and the T/C (dose: 300.0 mg/kg/injection, schedule: Q01DX001 (ip), vehicle: other) was 102 % of control.
With `O=C(O)CCC1(CCC(=O)O)SCSCS1` the T/C [1] was 93 % of control, the T/C [2] was 98 % of control and the T/C [3] was 93 % of control.
With `CCCN(CCC)c1ccc(N=Nc2cc(Cl)ccc2Cl)cc1` the T/C [7] was 91 % of control, the T/C [8] was 93 % of control and the T/C [9] was 91 % of control.
In the case of `Nc1nc(N)c2[nH]cnc2n1` (tested in a mixture with another compound), the T/C (dose: 100.0 mg/kg/injection, schedule: Q01DX001 (ip), vehicle: carboxymethylcellulose (CMC)) is reported as 93 % of control, the T/C (dose: 200.0 mg/kg/injection, schedule: Q01DX001 (ip), vehicle: carboxymethylcellulose (CMC)) is reported as 89 % of control and the T/C (dose: 400.0 mg/kg/injection, schedule: Q01DX001 (ip), vehicle: carboxymethylcellulose (CMC)) is reported as 94 % of control.
For `COc1cc(C=C(C#N)C#N)cc(I)c1O`, the T/C (dose: 25.0 mg/kg/injection, schedule: Q04DX003 (ip), vehicle: Klucel (hydroxypropylcellulose) (HPC)) was 98 % of control and the T/C (dose: 50.0 mg/kg/injection, schedule: Q04DX003 (ip), vehicle: Klucel (hydroxypropylcellulose) (HPC)) was 104 % of control.
In the case of `O=NN(CCCl)C(=O)Nc1ccc2c(c1)CCCC2`, the T/C (dose: 31.0 mg/kg/injection, schedule: Q01DX001 (ip), vehicle: carboxymethylcellulose (CMC)) is reported as 124 % of control, the T/C (dose: 84.0 mg/kg/injection, schedule: Q01DX001 (ip), vehicle: carboxymethylcellulose (CMC)) is reported as 186 % of control and the T/C (dose: 119.0 mg/kg/injection, schedule: Q01DX001 (ip), vehicle: carboxymethylcellulose (CMC)) is reported as 231 % of control. The T/C (dose: 125.0 mg/kg/injection, schedule: Q01DX001 (ip), vehicle: carboxymethylcellulose (CMC)) was 188 % of control, the T/C (dose: 178.0 mg/kg/injection, schedule: Q01DX001 (ip), vehicle: carboxymethylcellulose (CMC)) was 216 % of control and the T/C (dose: 187.0 mg/kg/injection, schedule: Q01DX001 (ip), vehicle: carboxymethylcellulose (CMC)) was 215 % of control. For the same molecule, the T/C (dose: 238.0 mg/kg/injection, schedule: Q01DX001 (ip), vehicle: carboxymethylcellulose (CMC)) was 223 % of control, the T/C (dose: 250.0 mg/kg/injection, schedule: Q01DX001 (ip), vehicle: carboxymethylcellulose (CMC)) was 89 % of control and the T/C (dose: 357.0 mg/kg/injection, schedule: Q01DX001 (ip), vehicle: carboxymethylcellulose (CMC)) was 101 % of control.
With `O=C(Cc1ccccc1)NC(CSSCC(NC(=O)Cc1ccccc1)C(=O)O)C(=O)O` (stereo unspecified) the T/C (dose: 88.0 mg/kg/injection, schedule: Q01DX009 (ip), vehicle: Klucel (hydroxypropylcellulose) (HPC)) was 93 % of control, the T/C (dose: 100.0 mg/kg/injection, schedule: Q01DX009 (ip), vehicle: saline) was 100 % of control and the T/C [7] was 95 % of control. The T/C (dose: 100.0 mg/kg/injection, schedule: Q04DX003 (ip), vehicle: saline) was 105 % of control and 97 % of control, the T/C (dose: 132.0 mg/kg/injection, schedule: Q01DX009 (ip), vehicle: Klucel (hydroxypropylcellulose) (HPC)) was 90 % of control and the T/C (dose: 200.0 mg/kg/injection, schedule: Q01DX009 (ip), vehicle: Klucel (hydroxypropylcellulose) (HPC)) was 100 % of control. For the same molecule, the T/C [8] was 98 % of control, the T/C (dose: 200.0 mg/kg/injection, schedule: Q04DX003 (ip), vehicle: saline) was 107 % of control and 100 % of control and the T/C (dose: 400.0 mg/kg/injection, schedule: Q01DX009 (ip), vehicle: saline) was 103 % of control. The T/C [9] was 98 % of control and the T/C (dose: 400.0 mg/kg/injection, schedule: Q04DX003 (ip), vehicle: saline) was 96 % of control and 100 % of control.
